Measured values taken from EP0975351B1, “TREATMENT OF MULTIPLE SCLEROSIS THROUGH INGESTION OF COPOLYMER-1” (YEDA RESEARCH AND DEVELOPMENT CO. LTD., priority 1997, dated 1998).

What was measured:
[1] = test system: T-cell line derived from spleens of glatiramer acetate fed rats; assay: Proliferation assay of T-cell line from spleens of fed rats; type: cell-based; settings: rat line cultured with glatiramer acetate as antigen (Figure 6)
Procedure: Isolation of glatiramer acetate specific T cell lines - Lewis rats were fed 5 times with 1 mg glatiramer acetate and (SJUJ x BALB/c)F, mice 7 times with 250 µg glatiramer acetate, at intervals of 2-3 days. Four to twelve days after the last feeding animals were sacrificed and their spleens removed.
Spleen cells of 3 animals were pooled and incubated (50 x 10^6/plate) with glatiramer acetate (500 µg) in medium containing 1 % autologous serum for 4 days. Every 14-21 days cells (4-6 x 10^6/plate) were restimulated by 3 days exposure to copolymer-1 (500 µg) presented on syngeneic irradiated (3000 rad) rat thymocytes (100 x 10^6/plate) or mouse splenocytes (50 x 10^6/plate). Stimulation was followed by propagation in 10% supernatant of Con A activated normal mouse spleen cells as T cell growth factor (TCGF).
Proliferation Assay - T cell lines (1 x 10^4 cells) were cultured with irradiated (3000R) thymocytes (rat-1 x 10^6) or splenocytes (mouse- 5 x 10^5) and with the indicated antigens (10 µg glatiramer acetate; 1 µg Con A) in a final volume of 0.2 ml in microtiter plates. At the end of 48 hours incubation cultures were pulsed with ^3H-thymidine and harvested 6-12 hours later.

spleen cells = assay: Proliferation assay of spleen cells in response to GPBP, fed mice; type: cell-based; settings: spleen cells of orally fed mice, 10-11 days after EAE induction (Figure 2)
Procedure: Induction and Assessment of EAE - Mice were injected with 200 µg GPBP emulsified in an equal volume of complete Freund's adjuvant (CFA) containing 4 mg/ml mycobacterium tuberculosis (H37Ra) (Difco Lab, Detroit, Mich.). The emulsion at a total volume of 0.1 ml was injected into all four footpads. Immediately after and 24 hours later, pertussis toxin (250ng/mouse) (Sigma) was injected intravenously.
Induction of Oral Tolerance - Mice were fed with 250 µg GPBP or glatiramer acetate dissolved in phosphate buffered saline (PBS) on days -7, -5, -3, 0, 2, 4 and 6 by gastric intubation with an 18-gauge stainless steel feeding needle (Thomas). EAE was induced on day 0.
Proliferation Assay - The proliferation response of spleen cells was tested 10-11 days after EAE induction as described above. Cells from 3 animals in each group were pooled and cultured in triplicate (5x10^5 mouse cells and 2x10^5 rat cells) in microtiter plates with various antigen concentrations (GPBP) in a final volume of 0.2ml. Microtiter plates contained RPMI 1640 (available from Sigma Biochemicals, St. Louis, Missouri) culture medium supplemented with 1% autologous serum. After 72 hr. of incubation, cells were pulsed with 1 µCi {^3H}-thymidine for 18 hr and then harvested onto filter papers and radioactivity was counted.

[2] = test system: MBP-specific T suppressor Inducer factor; assay: Assay for MBP-specific T suppressor inducer factor in plasma (3C9 antibody); type: in vivo, Rhesus Monkeys; settings: for MBP-specific T suppressor Inducer factor: plasma 1:20 dilution; for anti-Tsfi (3C9 Ab): plasma material bound to MBP (2.5µg)
From the text: The analysis, for MBP-specific Tsfi in the plasma of the three monkeys in this Example are seen in Tables 5 and 6 below. None of the animals produced MBP-specific Tsfi until day +13 following EAE induction with MBP. […] Glatiramer acetate fed animals 18497 and 18498 consistently produced significant levels of Tsfi from day +13 until day +41 shortly before termination.
Recombinant human TGF-beta reacted with the anti-TGF-beta, but not 3C9 antibody. Table 5: Assay for MBP-specific T suppressor Inducer factora

[3] = test system: exacerbating-remitting multiple sclerosis; settings: daily subcutaneous injections, phase III clinical trials; cited from earlier work
EAE [4] = assay: Suppression of MSCH-induced EAE in mice by oral administration, dose response; type: in vivo, (SJL/JxBALB/c)F1 mice; settings: days -7 to 6 (Figure 5)
Procedure: Animals were examined daily from day 10 post induction for signs of disease. EAE was scored as follows: 0-no disease, 1-limp tail, 2-hind limb paralysis, 3-paralysis of all four limbs, 4-moribund condition, 5-death.
Induction of EAE - (SJL/xBALB/c)F1 mice were injected in all four footpads with 2mg mouse spinal cord homogenated (MSCH) emulsified in 1:1 ratio in CFA containing 1 mg/ml H37Ra (Difco Lab, Detroit, Mich). Pertussis toxin (250 ng/mouse, Sigma) was twice injected intravenously, once immediately after and again 48 hours later.
(SJL/JxBALB/c)F1 mice were fed 7 times with 0.1, 0.25 or 0.5 mg glatiramer acetate on days -7; -5; -3; 0; 2; 4 and 6 by gastric intubation. EAE was induced on day 0 by the injection of MSCH.

EAE [5] = assay: Induction of EAE in Rhesus monkeys, oral enteric-coated capsules, clinical scoring (Example 3); type: in vivo
Procedure: Glatiramer acetate was provided by Teva Pharmaceutical Industries Ltd. in an enteric-coated hard gelatin capsule comprising two dosage levels: 1 mg of glatiramer acetate and 20 mg of glatiramer acetate. Each dosage level was formulated using mannitol, and coated with Eudragit L30D55. Placebo or control capsules comprised capsules containing 5 mg of sugar.
3 Rhesus monkeys were treated as follows: One monkey served as control and was fed with placebo capsules (containing 5mg glucose only). The second and third monkeys were fed with glatiramer acetate containing capsules at a dose of 1mg/feeding and 20mg/feeding, respectively. Animals were fed every other day for a total of 10 feedings: 5 times prior to disease induction (immunization on day 0) and then 5 times after immunization.
Disease was induced on day 0 by an intradermal injection of 8mg bovine - MBP and 3 mg H37Ra M. tuberculosis in FCA into the hind footpads, total injected volume between 0.1 and 0.15 ml per footpad. The animals were followed for clinical manifestations of EAE, a variety of serum and CSF immunological markers and spinal cord and cranial MRI's.

[6] = animal 18497, 1mg/feeding then 20mg capsules after day 33, day +41
[7] = animal 18497, 1mg/feeding, day +6
[8] = animal 18497, 1mg/feeding, day +13
[9] = animal 18497, 1mg/feeding, day +27
[10] = animal 18498, 20mg/feeding, day +6
[11] = animal 18498, 20mg/feeding, day +13
[12] = animal 18498, 20mg/feeding, day +27
[13] = animal 18498, 20mg/feeding, day +41

glatiramer acetate
proliferation response of T-cell line [1]: proliferated in response to glatiramer acetate
proliferative responses to GPBP (spleen cells): almost complete inhibition
MBP-specific T suppressor Inducer factor ([2]; animal 18497, 1mg/feeding then 20mg capsules after day 33, day +34): .66 OD at 405nm
MBP-specific T suppressor Inducer factor [2, 6]: .76 OD at 405nm
MBP-specific T suppressor Inducer factor [2, 7]: none
MBP-specific T suppressor Inducer factor [2, 8]: .60 OD at 405nm
MBP-specific T suppressor Inducer factor ([2]; animal 18497, 1mg/feeding, day +20): .61 OD at 405nm
MBP-specific T suppressor Inducer factor [2, 9]: .56 OD at 405nm
MBP-specific T suppressor Inducer factor ([2]; animal 18497, 1mg/feeding, day -1): none
MBP-specific T suppressor Inducer factor ([2]; animal 18497, 1mg/feeding, day -13): none
MBP-specific T suppressor Inducer factor [2, 10]: none
MBP-specific T suppressor Inducer factor [2, 11]: .32 OD at 405nm
MBP-specific T suppressor Inducer factor ([2]; animal 18498, 20mg/feeding, day +20): .32 OD at 405nm
MBP-specific T suppressor Inducer factor [2, 12]: .42 OD at 405nm
MBP-specific T suppressor Inducer factor ([2]; animal 18498, 20mg/feeding, day +34): .40 OD at 405nm
MBP-specific T suppressor Inducer factor [2, 13]: .40 OD at 405nm
MBP-specific T suppressor Inducer factor ([2]; animal 18498, 20mg/feeding, day -1): none
MBP-specific T suppressor Inducer factor ([2]; animal 18498, 20mg/feeding, day -13): none
anti-Tsfi (3C9 Ab) [2, 6]: 0.76 OD405 nm
anti-Tsfi (3C9 Ab) [2, 7]: none
anti-Tsfi (3C9 Ab) [2, 8]: 0.60 OD405 nm
anti-Tsfi (3C9 Ab) [2, 9]: 0.56 OD405 nm
anti-Tsfi (3C9 Ab) [2, 10]: none
anti-Tsfi (3C9 Ab) [2, 11]: 0.32 OD405 nm
anti-Tsfi (3C9 Ab) [2, 12]: 0.42 OD405 nm
anti-Tsfi (3C9 Ab) [2, 13]: 0.40 OD405 nm
progression of disability and relapse rate [3]: slow progression of disability and reduce the relapse rate
suppression of EAE (EAE [4]; mice fed 7 times 0.1 mg): most effective dose
suppression of EAE (EAE [4]; mice fed 7 times 0.25 mg): less effective
suppression of EAE (EAE [4]; mice fed 7 times 0.5 mg): completely inactive
day of first (minimal) symptoms (EAE [5]; animal 18497, 1mg/feeding, 10 feedings): 25 days
time until clinical signs dropped to zero (EAE [5]; animal 18497, after day 33 fed 20mg capsules 5 times on alternate days, remained zero until day 60): ≤ 3 days
clinical symptoms (EAE [5]; animal 18498, 20mg/feeding, 10 feedings, 60 day observation period, placebo animal score 4+ , sacrificed day 28): did not show any significant clinical symptoms
